# Results published in patent US20060199172A1, “Laminated cell culture containing hepatocytes and method for detecting endocrine-like substance” (FUJI PHOTO FILM CO., LTD., priority 2005, published 2006).
# Tests used:
# rat uterus = details: in vivo; cited from earlier work
# MCF-7 cells = experiment: Detection of endocrine-like substance by number of MCF-7 cells in the laminated cell culture system; assay type: cell-based; details: laminated cell culture system (MCF-7 + rat primary hepatocytes + rat vascular endothelial cells), 0.1 μg/ml, 14 days; compared with MCF-7 only and monolayer hepatocytes + MCF-7
# Experimental: 40,000 of estrogen-like substance detection cells (MCF-7) were inoculated on a 12-well microplate and cultured for 7 days under the conditions of 37° C. and 5% CO2 to prepare an MCF-7 cell layer.
# The carrier for cell culture prepared in Example 1 was adhered to bottom of a 20-mm petri dish (FALCON, No. 2163) with a small amount of sterilized water, and 40,000 cells of rat primary hepatocytes (collected by the method described in “Techniques of Tissue Culture, Second edition”, Ed. by Japan Tissue Culture Association, Asakura Publishing, p. 135) were inoculated on the carrier for cell culture and cultured for 24 hours under the conditions of 37° C. and 5% CO2. In the same manner, 20,000 cells of rat vascular endothelial cells A-10 (Dainippon Pharmaceutical Co., Ltd.) were inoculated on the carrier for cell culture prepared in Example 1 and cultured for 72 hours under the conditions of 37° C. and 5% CO2.
# The rat primary hepatocyte cell culture obtained was carefully placed on the MCF-7 cell layer on the 12-well microplate so that the side of the growth of the rat primary hepatocyte was on the side of the MCF-7 cells, and cultured for 24 hours under the conditions of 37° C. and 5% CO2. […]
# rat primary hepatocytes = experiment: AST release into the medium from cultured hepatocytes after adding the substance; assay type: cell-based; details: 0.1 μg/ml, measured over time
# Experimental: Rat primary hepatocytes (collected by the method described in “Techniques of Tissue Culture, Second edition”, Ed. by Japan Tissue Culture Association, Asakura Publishing, p. 135) were inoculated on a 12-well microplate (FALCON, No. 3505) in an amount of 50000 cells/well and cultured for 24 hours under the conditions of 37° C. and 5% CO2. Separately, the carrier for cell culture prepared in Example 1 was adhered to bottom of a 20-mm petri dish (FALCON, No. 2163) with a small amount of sterilized water. 20,000 cells of rat vascular endothelial cells A-10 (Dainippon Pharmaceutical Co., Ltd.) were inoculated on the carrier for cell culture and cultured for 72 hours under the conditions of 37° C. and 5% CO2. As the medium, 10% FBS Eagle's MEM medium (GIBCO) was used for both cultures. The rat vascular endothelial cell culture obtained was carefully placed on the aforementioned rat primary hepatocytes on the 12-well microplate so that the cell growing side contacted with the rat primary hepatocytes, and cultured for 24 hours under the conditions of 37° C. and 5% CO2. […]
# The laminated cell culture prepared in Example 2 and the hepatocytes cultured as monolayer culture was added with 0.1 μg/ml of chloropramazine, and the amount of AST released into the medium was measured over time.
Compound,rat uterus proliferation test result (rat uterus),number of MCF-7 cells (MCF-7 cells),amount of AST released into the medium (rat primary hepatocytes; laminated cell culture (rat primary hepatocytes + rat vascular endothelial cells A-10)),amount of AST released into the medium (rat primary hepatocytes; primary hepatocytes cultured as monolayer culture)
"CC(C)c1cc(C(C)C)c2ccccc2c1 [2,4-diisopropylnaphthalene]",positive,maximum value,,
CN(C)CCCN1c2ccccc2Sc2ccc(Cl)cc21 [chloropramazine],,,increase in the amount of AST was observed,AST was not detected
